The target in one assay is T1, androgen receptor (Homo sapiens, UniProt P10275, T878A).
T1 construct: Destabilization of AR in LNCaP Cells by Test Substances; endogenous in cells; host or cells: LNCaP (human prostate cell line)
T1 sequence (P10275 1-920 T878A): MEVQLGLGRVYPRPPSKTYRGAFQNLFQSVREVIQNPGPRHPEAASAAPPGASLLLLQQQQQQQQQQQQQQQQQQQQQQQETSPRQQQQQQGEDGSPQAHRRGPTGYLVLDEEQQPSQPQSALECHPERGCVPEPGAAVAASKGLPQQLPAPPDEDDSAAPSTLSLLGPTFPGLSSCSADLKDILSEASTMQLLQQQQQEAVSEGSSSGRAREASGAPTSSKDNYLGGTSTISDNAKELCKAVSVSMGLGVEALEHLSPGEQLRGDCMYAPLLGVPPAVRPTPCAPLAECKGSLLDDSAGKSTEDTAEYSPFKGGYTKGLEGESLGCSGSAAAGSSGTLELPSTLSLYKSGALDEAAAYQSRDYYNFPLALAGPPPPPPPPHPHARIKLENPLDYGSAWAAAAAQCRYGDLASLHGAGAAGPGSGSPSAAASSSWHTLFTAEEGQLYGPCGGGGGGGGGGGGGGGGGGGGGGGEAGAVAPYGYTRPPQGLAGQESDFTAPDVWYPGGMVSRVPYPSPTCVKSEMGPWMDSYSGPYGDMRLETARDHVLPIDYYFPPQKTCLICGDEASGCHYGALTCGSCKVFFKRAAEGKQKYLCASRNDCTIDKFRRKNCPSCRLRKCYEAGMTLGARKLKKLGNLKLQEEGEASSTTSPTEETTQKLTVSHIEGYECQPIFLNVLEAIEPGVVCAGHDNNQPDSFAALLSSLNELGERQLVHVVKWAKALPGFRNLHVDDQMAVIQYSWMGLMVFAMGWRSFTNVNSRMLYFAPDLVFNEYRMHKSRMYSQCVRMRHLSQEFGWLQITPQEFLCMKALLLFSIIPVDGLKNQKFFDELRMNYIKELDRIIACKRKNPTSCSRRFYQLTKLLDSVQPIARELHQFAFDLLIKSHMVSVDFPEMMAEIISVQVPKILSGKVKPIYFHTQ
The class given is cell-based.

The next assay has as its system LNCaP cells. Description: Inhibition of the proliferation of LNCaP cells (crystal violet assay). In kind it is cell-based, human. The note with it: for IC50 / inhibition at 1 µM: Homo sapiens, LNCaP; for IC50: 7 to 8 days; for antiproliferative action (in words): LNCaP cells. As for the experimental part:
For the proliferation assay, 6000 LNCaP cells/well (Horoszewicz et al. Cancer Res. 1983, 43, 1809–1817) in a microtiter plate (96-well) in 50 μl of RPMI1640 medium are grown with 5% CCS and cultivated as in Model 1. After 24 hours, the cells receive 50 μl of 2×-concentrated test substance, diluted in culture medium. The solvent concentration is 0.5% DMSO. After 4 days, the cells receive another 100 μl of 1×-concentrated test substance, diluted in culture medium. After 7 to 8 days, the proliferation rate of the cells is determined by means of crystal violet assay (Gillies et al. Anal. Biochem. 1986, 159, 109–113). To determine the antagonism, the substance treatment is performed in the presence of […] of R1881 (1:1000 dilution of ethanolic solution). Control cells receive only 0.5% DMSO. For the agonism, the cells are treated only with test substance (without R1881).

Setting [1] is: LNCaP cells, 48 h, 1 μM, % of DMSO control.
Setting [2] is: LNCaP cells, 48 h, 10 μM, % of DMSO control.
Where [3] appears, read: read-out: IC50 inhibition of the proliferation of LNCaP cells, in the presence of 0.1 nmol of R1881.
[4] abbreviates: 1 μM test substance, compared to cell growth in the presence of 0.1 nmol of R1881, read-out: % Inhibition at 1 μM.
[5] abbreviates: in the presence of 0.1 nmol of R1881, read-out: IC50 inhibition of the proliferation of LNCaP cells.

Read-outs that look alike come from different tables or passages of the source.

For `CC1(C)C(=O)N(c2ccc(C#N)c(C(F)(F)F)c2)C(=S)N1CCO` [Example 71 USRe 35956, 4-[3-(2-Hydroxyethyl)-4,4-dimethyl-5-oxo-2-thioxoimidazolidin-1-yl]-2-(trifluoromethyl)benzonitrile, reference compound], on androgen receptor (setting [1]), the “AR Content at 1 μM” value is 164%. Besides, at androgen receptor (setting [2]), the “AR Content at 10 μM” value stood at 191%. Also, the IC50 with LNCaP cells (setting [3]) is greater than 10000 nM. Also, the inhibition (commonly the relative decrease from the control value, in per cent) at 1 µM with LNCaP cells (setting [4]) came to 9%. Also, the “antiproliferative action (in words)” value in the assay with LNCaP cells is reported as “little or no antiproliferative action”.
Regarding `CC1(C)C(=O)N(c2ccc(C#N)c(C(F)(F)F)c2)C(=S)N1CCCCO` [Example 77 USRe 35956, 4-[3-(4-Hydroxybutyl)-4,4-dimethyl-5-oxo-2-thioxoimidazolidin-1-yl]-2-(trifluoromethyl)benzonitrile, reference compound], on androgen receptor, the “AR Content at 1 μM” value is on record as 230% and the “AR Content at 10 μM” value came to 180%. Besides, the inhibition at 1 µM in the assay with LNCaP cells (read-out: % Inhibition at 1 μM, 1 μM test substance, compared to cell growth in the presence of 0.1 nmol of R1881) worked out at 34%. The IC50 in the assay on LNCaP cells (setting [3]) was greater than 10000 nM. For the same compound, the “antiproliferative action (in words)” value in the assay with LNCaP cells is “little or no antiproliferative action”.
With `C[C@@H]1CC[C@H](C)N1CCCCCCCCN1C(=S)N(c2ccc(C#N)c(C(F)(F)F)c2)C(=O)C1(C)C` [Example 37, 4-[3-[8-[(2R,5S)-rel-2,5-Dimethylpyrrolidin-1-yl]octyl]-4,4-dimethyl-5-oxo-2-thioxoimidazolidin-1-yl]-2-(trifluoromethyl)benzonitrile], the “AR Content at 1 μM” value on androgen receptor (setting [1]) was 57%. The IC50 in the assay on LNCaP cells (setting [3]) was 11 nM. In addition, the inhibition at 1 µM in the assay with LNCaP cells (setting [4]) stood at 99%.
For `CC1(C)C(=O)N(c2ccc(C#N)c(C(F)(F)F)c2)C(=S)N1CCCCCCCN1CCC[C@H]1CO` [Example 9, 4-[3-[7-[(2S)-2-(Hydroxymethyl)pyrrolidin-1-yl]heptyl]-4,4-dimethyl-5-oxo-2-thioxoimidazolidin-1-yl]-2-(trifluoromethyl)benzonitrile], at androgen receptor (setting [1]), the “AR Content at 1 μM” value is 63%. Further, the IC50 in the assay on LNCaP cells (setting [3]) is 26 nM. Moreover, the inhibition at 1 µM in the assay with LNCaP cells (setting [4]) was determined as 92%.
As to `CC1(C)C(=O)N(c2ccc(C#N)c(C(F)(F)F)c2)C(=S)N1CCCCCCN1CC[C@@H](C(N)=O)C1` [Example 52, (R)-1-[6-[3-[4-Cyano-3-(trifluoromethyl)phenyl]-5,5-dimethyl-4-oxo-2-thioxoimidazolidin-1-yl]hexyl]pyrrolidine-4-carboxamide], the “AR Content at 1 μM” value at androgen receptor (setting [1]) was 74%. Besides, on androgen receptor (setting [2]), the “AR Content at 10 μM” value is on record as 36%. The IC50 with LNCaP cells (setting [3]) was determined as 12 nM. The inhibition at 1 µM in the assay on LNCaP cells (setting [4]) was 100%.
As to `C[C@]1(O)CC[C@H]2[C@@H]3CCC4=CC(=O)CCC4=C3C=C[C@@]21C` [Example R1881, 17β-hydroxy-17α-methylestra-4,9,11-trien-3-one, reference compound], the “influence on AR content (in words)” value on androgen receptor (LNCaP cells) is given as “stabilizes the AR protein”. Moreover, at androgen receptor (LNCaP cells, R1881 at 10 nM (printed in the 10 μM column), % of DMSO control), the “AR Content” value is listed as 250%.
On to `CC1(C)C[C@@H](CN2CCCC2)N(CCCCCCCN2CCN(c3ccc(C#N)c(C(F)(F)F)c3)C2=S)C1=O` [Example 56, 4-[3-[7-[(2S)-4,4-Dimethyl-5-oxo-2-(pyrrolidin-1-ylmethyl)pyrrolidin-1-yl]heptyl]-2-thioxoimidazolidin-1-yl]-2-(trifluoromethyl)benzonitrile], for which, at androgen receptor (setting [1]), the “AR Content at 1 μM” value was determined as 24%.
With `CC(C)(O)[C@H]1CCCN1CCCCCCCCN1C(=S)N(c2ccc(C#N)c(C(F)(F)F)c2)C(=O)C1(C)C` [Example 44, 4-[3-[8-[(2R)-2-(1-Hydroxy-1-methylethyl)pyrrolidin-1-yl]octyl]-4,4-dimethyl-5-oxo-2-thioxoimidazolidin-1-yl]-2-(trifluoromethyl)benzonitrile], in the assay on LNCaP cells (setting [4]), the inhibition at 1 µM is 115%. Further, in the assay with LNCaP cells (setting [5]), the IC50 came to 11 nM.
As to `COC[C@H]1CCCN1CCCCCCCCN1C(=S)N(c2ccc(C#N)c(C(F)(F)F)c2)C(=O)C1(C)C` [Example 18, 4-[3-[8-[(2R)-2-(Methoxymethyl)pyrrolidin-1-yl]octyl]-4,4-dimethyl-5-oxo-2-thioxoimidazolidin-1-yl]-2-(trifluoromethyl)benzonitrile], in the assay on LNCaP cells (setting [4]), the inhibition at 1 µM came to 103%. In the assay with LNCaP cells (setting [5]), the IC50 turned out to be 11 nM.
For the compound `CC1(C)C(=O)N(c2ccc(C#N)c(C(F)(F)F)c2)C(=S)N1CCCCCCCN1CC[C@@H](O)C1` [Example 27, 4-[3-[7-[(R)-3-Hydroxypyrrolidin-1-yl]heptyl]-4,4-dimethyl-5-oxo-2-thioxoimidazolidin-1-yl]-2-(trifluoromethyl)benzonitrile], in the assay with LNCaP cells (setting [4]), the inhibition at 1 µM is 95%. The IC50 in the assay with LNCaP cells (setting [5]) came to 57 nM.
The matching figures for `CC1(C)C(=O)N(c2ccc(C#N)c(C(F)(F)F)c2)C(=S)N1CCCCCCCCCN1CC[C@@H](O)C1` [Example 29, 4-[3-[9-[(R)-3-Hydroxypyrrolidin-1-yl]nonyl]-4,4-dimethyl-5-oxo-2-thioxoimidazolidin-1-yl]-2-(trifluoromethyl)benzonitrile]: 99% and 35 nM.
In the case of `CC1(C)C(=O)N(c2ccc(C#N)c(C(F)(F)F)c2)C(=S)N1CCCCCCN1CC[C@H](C(N)=O)C1` [Example 49, (S)-1-[6-[3-[4-Cyano-3-(trifluoromethyl)phenyl]-5,5-dimethyl-4-oxo-2-thioxoimidazolidin-1-yl]hexyl]pyrrolidine-4-carboxamide], the inhibition at 1 µM in the assay with LNCaP cells (setting [4]) is 110%. Further, the IC50 in the assay with LNCaP cells (setting [5]) stood at 32 nM.
With `CC1(C)C(=O)N(c2ccc(C#N)c(C(F)(F)F)c2)C(=S)N1CCCCCCN1CCC[C@@H]1CO` [Example 6, 4-[3-[6-[(2R)-2-(Hydroxymethyl)pyrrolidin-1-yl]hexyl]-4,4-dimethyl-5-oxo-2-thioxoimidazolidin-1-yl]-2-(trifluoromethyl)benzonitrile], the inhibition at 1 µM in the assay with LNCaP cells (setting [4]) was determined as 102%. The IC50 in the assay on LNCaP cells (setting [5]) stood at 55 nM.
For `COC[C@@H]1CCCN1CCCCCCCN1C(=S)N(c2ccc(C#N)c(C(F)(F)F)c2)C(=O)C1(C)C` [Example 17, 4-[3-[7-[(2S)-2-(Methoxymethyl)pyrrolidin-1-yl]heptyl]-4,4-dimethyl-5-oxo-2-thioxoimidazolidin-1-yl]-2-(trifluoromethyl)benzonitrile], the inhibition at 1 µM in the assay on LNCaP cells (setting [4]) amounted to 99%. Moreover, the IC50 with LNCaP cells (setting [5]) turned out to be 32 nM.
Take `CC(C)(O)[C@@H]1CCCN1CCCCCCCCN1C(=S)N(c2ccc(C#N)c(C(F)(F)F)c2)C(=O)C1(C)C` [Example 40, 4-[3-[8-[(2S)-2-(1-Hydroxy-1-methylethyl)pyrrolidin-1-yl]octyl]-4,4-dimethyl-5-oxo-2-thioxoimidazolidin-1-yl]-2-(trifluoromethyl)benzonitrile]: on androgen receptor (setting [1]), the “AR Content at 1 μM” value is recorded as 40%. Besides, the IC50 with LNCaP cells (setting [3]) turned out to be 11 nM. The inhibition at 1 µM with LNCaP cells (setting [4]) was found to be 118%.
For `CC1(C)C(=O)N(c2ccc(C#N)c(C(F)(F)F)c2)C(=S)N1CCCCCCCN1CC[C@@H](C(N)=O)C1` [Example 53, (R)-1-[7-[3-[4-Cyano-3-(trifluoromethyl)phenyl]-5,5-dimethyl-4-oxo-2-thioxoimidazolidin-1-yl]heptyl]pyrrolidine-4-carboxamide], the inhibition at 1 µM in the assay with LNCaP cells (setting [4]) worked out at 97%. In the assay on LNCaP cells (setting [5]), the IC50 was 49 nM.
The matching figures for `CC1(C)C(=O)N(c2ccc(C#N)c(C(F)(F)F)c2)C(=S)N1CCCCCCCCN1CC[C@H](O)C1` [Example 32, 4-[3-[8-[(S)-3-Hydroxypyrrolidin-1-yl]octyl]-4,4-dimethyl-5-oxo-2-thioxoimidazolidin-1-yl]-2-(trifluoromethyl)benzonitrile]: 101% and 12 nM.

For the origin of these results see US7138421B2, “Anti-androgenic pyrrolidines with tumor-inhibiting action” (Schring Aktiengesellschaft, priority 2003, dated 2006).
